In patent US20150105252A1, “SUBSTITUTED PYRAZOLES AS HERBICIDES” (E I DU PONT DE NEMOURS AND COMPANY, priority 2013, published 2015):
Values joined by “and” are separate entries in the source; they are usually repeats but may differ in a detail not shown here. Equal entries are not always repeated.

Key:
wild poinsettia = test: Test F postemergence; type: in vivo, Euphorbia heterophylla; settings: scale 0 to 100
Excerpt: (§1) Seeds of plant species selected from corn (Zea mays), soybean (Glycine max), velvetleaf (Abutilon theophrasti), lambsquarters (Chenopodium album), wild poinsettia (Euphorbia heterophylla), pigweed, palmer (palmer pigweed, Amaranthus palmeri), common waterhemp (Amaranthus rudis), surinam grass (Brachiaria decumbens), large crabgrass (Digitaria sanguinalis), crabgrass, Brazil (Brazilian crabgrass, Digitaria horizontalis), fall panicum (Panicum dichotomiflorum), giant foxtail (Setaria faberii), green foxtail (Setaria viridis), goosegrass (Eleusine indica), johnsongrass (Sorghum halepense), common ragweed (Ambrosia elation), barnyardgrass (Echinochloa crus-galli), southern sandbur (Cenchrus echinatus), arrowleaf sida (Sida rhombifolia), Italian ryegrass (Lolium multiflorum), dayflower, VA (Virginia (VA) dayflower, Commelina virginica), field bindweed (Convolvulus arvensis), cocklebur (common cocklebur, Xanthium strumarium), morningglory (Ipomoea coccinea), nightshade (eastern black nightshade, Solanum ptycanthum), kochia (Kochia scoparia), yellow nutsedge (Cyperus esculentus), and hairy beggarticks (Bidens pilosa), were planted into a silt loam soil and treated preemergence with test chemicals formulated in a non-phytotoxic solvent mixture which included a surfactant.
(§2) At the same time, plants from these crop and weed species and also horseweed (Canada horseweed, Conyza canadensis), smartweed (ladysthumb smartweed, Polygonum persicaria), waterhemp_RES1, (ALS & Triazine resistant common waterhemp, Amaranthus rudis), and waterhemp_RES2, (ALS & HPPD resistant common waterhemp, Amaranthus rudis) were treated with postemergence applications of test chemicals formulated in the same manner. Plants ranged in height from 2 to 18 cm for postemergence treatments (1- to 4-leaf stage). Treated plants and controls were maintained in a greenhouse for 14 to 21 days, after which time all species were compared to controls and visually evaluated. Plant response ratings, summarized in Table F, are based on a scale of 0 to 100 where 0 is no effect and 100 is complete control. A dash (-) response means no test result.

corn = test: Test F postemergence; type: in vivo, Zea mays; settings: scale 0 to 100
Excerpt: as §1, §2

field bindweed = test: Test F postemergence; type: in vivo, Convolvulus arvensis; settings: scale 0 to 100
Excerpt: as §1, §2

soybean = test: Test F postemergence; type: in vivo, Glycine max; settings: scale 0 to 100
Excerpt: as §1, §2

crabgrass, Brazil = test: Test F postemergence; type: in vivo, Digitaria horizontalis; settings: scale 0 to 100
Excerpt: as §1, §2

common waterhemp = test: Test F postemergence; type: in vivo, Amaranthus rudis; settings: scale 0 to 100
Excerpt: as §1, §2

[1] = system: waterhemp_RES2 (ALS & HPPD resistant common waterhemp); test: Test F postemergence; type: in vivo, Amaranthus rudis; settings: scale 0 to 100
Excerpt: as §1, §2

smartweed = test: Test F postemergence; type: in vivo, Polygonum persicaria; settings: scale 0 to 100
Excerpt: as §1, §2

arrowleaf sida = test: Test F postemergence; type: in vivo, Sida rhombifolia; settings: scale 0 to 100
Excerpt: as §1, §2

barnyardgrass = test: Test F postemergence; type: in vivo, Echinochloa crus-galli; settings: scale 0 to 100
Excerpt: as §1, §2

fall panicum = test: Test F preemergence; type: in vivo, Panicum dichotomiflorum
Excerpt: as §1, §2

[2] = Preemergence, 62 g ai/ha, scale 0 to 100
[3] = Preemergence, 125 g ai/ha, scale 0 to 100
[4] = preemergence, 16 g ai/ha, scale 0 to 100, 100 is complete control

Structure (SMILES): CCCNC(=O)c1cc(CC)n(Cc2nc(C(F)(F)F)nn2C)n1 [Compound 109]
- Plant response rating, Wild Poinsettia (wild poinsettia; Postemergence, 16 g ai/ha): 40
- Plant response rating, Wild Poinsettia (wild poinsettia; Postemergence, 31 g ai/ha): 50
- Plant response rating, Wild Poinsettia (wild poinsettia; Postemergence, 125 g ai/ha): 70
- Plant response rating, Corn (corn; Postemergence, 16 g ai/ha): 0
- Plant response rating, Corn (corn; Postemergence, 31 g ai/ha): 0
- Plant response rating, Corn (corn; Postemergence, 125 g ai/ha): 20
- Plant response rating, Corn (corn; Postemergence, 250 g ai/ha): 75
- Plant response rating, Field Bindweed (field bindweed; Postemergence, 16 g ai/ha): 30
- Plant response rating, Field Bindweed (field bindweed; Postemergence, 31 g ai/ha): 40
- Plant response rating, Field Bindweed (field bindweed; Postemergence, 125 g ai/ha): 50
- Plant response rating, Field Bindweed (field bindweed; Postemergence, 250 g ai/ha): 80
- Plant response rating, Soybean (soybean; Postemergence, 16 g ai/ha): 50
- Plant response rating, Soybean (soybean; Postemergence, 31 g ai/ha): 70
- Plant response rating, Soybean (soybean; Postemergence, 125 g ai/ha): 95
- Plant response rating, Soybean (soybean; Postemergence, 250 g ai/ha): 95
- Plant response rating, Crabgrass, Brazil (crabgrass, Brazil; Postemergence, 16 g ai/ha): 10
- Plant response rating, Crabgrass, Brazil (crabgrass, Brazil; Postemergence, 31 g ai/ha): 10
- Plant response rating, Crabgrass, Brazil (crabgrass, Brazil; Postemergence, 125 g ai/ha): 40
- Plant response rating, Crabgrass, Brazil (crabgrass, Brazil; Postemergence, 250 g ai/ha): 70
- Plant response rating, Common Waterhemp (common waterhemp; Postemergence, 16 g ai/ha): 50
- Plant response rating, Common Waterhemp (common waterhemp; Postemergence, 31 g ai/ha): 50
- Plant response rating, Common Waterhemp (common waterhemp; Postemergence, 125 g ai/ha): 75
- Plant response rating, Common Waterhemp (common waterhemp; Postemergence, 250 g ai/ha): 80
- Plant response rating, Waterhemp_RES2 ([1]; Postemergence, 16 g ai/ha): 30
- Plant response rating, Waterhemp_RES2 ([1]; Postemergence, 31 g ai/ha): 50
- Plant response rating, Waterhemp_RES2 ([1]; Postemergence, 125 g ai/ha): 60
- Plant response rating, Waterhemp_RES2 ([1]; Postemergence, 250 g ai/ha): 70
- Plant response rating, Smartweed (smartweed; Postemergence, 16 g ai/ha): 20
- Plant response rating, Smartweed (smartweed; Postemergence, 31 g ai/ha): 50
- Plant response rating, Smartweed (smartweed; Postemergence, 125 g ai/ha): 70
- Plant response rating, Smartweed (smartweed; Postemergence, 250 g ai/ha): 80
- Plant response rating, Arrowleaf Sida (arrowleaf sida; Postemergence, 16 g ai/ha): 30
- Plant response rating, Arrowleaf Sida (arrowleaf sida; Postemergence, 31 g ai/ha): 30
- Plant response rating, Arrowleaf Sida (arrowleaf sida; Postemergence, 125 g ai/ha): 50
- Plant response rating, Arrowleaf Sida (arrowleaf sida; Postemergence, 250 g ai/ha): 60
- Plant response rating, Barnyardgrass (barnyardgrass; Postemergence, 16 g ai/ha): 0
- Plant response rating, Barnyardgrass (barnyardgrass; Postemergence, 31 g ai/ha): 0
- Plant response rating, Barnyardgrass (barnyardgrass; Postemergence, 125 g ai/ha): 30
- Plant response rating, Barnyardgrass (barnyardgrass; Postemergence, 250 g ai/ha): 50

Structure (SMILES): CCc1cc(-c2ccc(C(F)(F)F)cc2)nn1Cc1ccnc(C(F)(F)F)c1 [Compound 110]
- Plant response rating, Wild Poinsettia (wild poinsettia; Postemergence, 16 g ai/ha): 70
- Plant response rating, Wild Poinsettia (wild poinsettia; Postemergence, 31 g ai/ha): 75
- Plant response rating, Wild Poinsettia (wild poinsettia; Postemergence, 125 g ai/ha): 95
- Plant response rating, Wild Poinsettia (wild poinsettia; postemergence, 62 g ai/ha): 60 and 80
- Plant response rating, Wild Poinsettia (wild poinsettia; postemergence, 8 g ai/ha): 70
- Plant response rating, Corn (corn; Postemergence, 16 g ai/ha): 10
- Plant response rating, Corn (corn; Postemergence, 31 g ai/ha): 10
- Plant response rating, Corn (corn; Postemergence, 125 g ai/ha): 20
- Plant response rating, Corn (corn; postemergence, 62 g ai/ha): 10 and 15
- Plant response rating, Corn (corn; postemergence, 8 g ai/ha): 10
- Plant response rating, Field Bindweed (field bindweed; Postemergence, 16 g ai/ha): 40
- Plant response rating, Field Bindweed (field bindweed; Postemergence, 31 g ai/ha): 60
- Plant response rating, Field Bindweed (field bindweed; Postemergence, 125 g ai/ha): 60
- Plant response rating, Field Bindweed (field bindweed; postemergence, 62 g ai/ha): 40 and 50
- Plant response rating, Field Bindweed (field bindweed; postemergence, 8 g ai/ha): 30
- Plant response rating, Soybean (soybean; Postemergence, 16 g ai/ha): 30
- Plant response rating, Soybean (soybean; Postemergence, 31 g ai/ha): 30
- Plant response rating, Soybean (soybean; Postemergence, 125 g ai/ha): 30
- Plant response rating, Soybean (soybean; postemergence, 8 g ai/ha): 20
- Plant response rating, Crabgrass, Brazil (crabgrass, Brazil; Postemergence, 16 g ai/ha): 30
- Plant response rating, Crabgrass, Brazil (crabgrass, Brazil; Postemergence, 31 g ai/ha): 30
- Plant response rating, Crabgrass, Brazil (crabgrass, Brazil; Postemergence, 125 g ai/ha): 50
- Plant response rating, Crabgrass, Brazil (crabgrass, Brazil; postemergence, 62 g ai/ha): 30 and 40
- Plant response rating, Crabgrass, Brazil (crabgrass, Brazil; postemergence, 8 g ai/ha): 20
- Plant response rating, Common Waterhemp (common waterhemp; Postemergence, 16 g ai/ha): 95
- Plant response rating, Common Waterhemp (common waterhemp; Postemergence, 31 g ai/ha): 100
- Plant response rating, Common Waterhemp (common waterhemp; Postemergence, 125 g ai/ha): 100
- Plant response rating, Common Waterhemp (common waterhemp; postemergence, 62 g ai/ha): 60 and 90
- Plant response rating, Common Waterhemp (common waterhemp; postemergence, 8 g ai/ha): 90
- Plant response rating, Waterhemp_RES2 ([1]; Postemergence, 16 g ai/ha): 90
- Plant response rating, Waterhemp_RES2 ([1]; Postemergence, 31 g ai/ha): 98
- Plant response rating, Waterhemp_RES2 ([1]; Postemergence, 125 g ai/ha): 100
- Plant response rating, Waterhemp_RES2 ([1]; postemergence, 62 g ai/ha): 60 and 98
- Plant response rating, Waterhemp_RES2 ([1]; postemergence, 8 g ai/ha): 85
- Plant response rating, Smartweed (smartweed; postemergence, 62 g ai/ha): 50
- Plant response rating, Arrowleaf Sida (arrowleaf sida; Postemergence, 16 g ai/ha): 75
- Plant response rating, Arrowleaf Sida (arrowleaf sida; Postemergence, 31 g ai/ha): 85
- Plant response rating, Arrowleaf Sida (arrowleaf sida; Postemergence, 125 g ai/ha): 85
- Plant response rating, Arrowleaf Sida (arrowleaf sida; postemergence, 62 g ai/ha): 40 and 75
- Plant response rating, Arrowleaf Sida (arrowleaf sida; postemergence, 8 g ai/ha): 60
- Plant response rating, Fall Panicum (fall panicum; Preemergence, 31 g ai/ha, scale 0 to 100): 75
- Plant response rating, Fall Panicum (fall panicum; [2]): 98
- Plant response rating, Fall Panicum (fall panicum; [3]): 100
- Plant response rating, Fall Panicum (fall panicum; preemergence, 8 g ai/ha, scale 0 to 100, 100 is complete control): 0
- Plant response rating, Fall Panicum (fall panicum; [4]): 5
- Plant response rating, Barnyardgrass (barnyardgrass; Postemergence, 16 g ai/ha): 20
- Plant response rating, Barnyardgrass (barnyardgrass; Postemergence, 31 g ai/ha): 20
- Plant response rating, Barnyardgrass (barnyardgrass; Postemergence, 125 g ai/ha): 50
- Plant response rating, Barnyardgrass (barnyardgrass; postemergence, 8 g ai/ha): 10

Structure (SMILES): CCCc1cc(C(=O)NC(C)C)nn1Cc1cc(C(F)(F)F)nn1C [Compound 201]
- Plant response rating, Fall Panicum (fall panicum; Preemergence, 16 g ai/ha, scale 0 to 100): 85
- Plant response rating, Fall Panicum (fall panicum; [2]): 90
- Plant response rating, Fall Panicum (fall panicum; [3]): 100
- Plant response rating, Fall Panicum (fall panicum; Preemergence, 250 g ai/ha, scale 0 to 100): 100
- Plant response rating, Fall Panicum (fall panicum; [4]): 0
